Experimental data reported in publication PMC4529401 (Pharmaceutical research, 2015).
Where two headings read alike, the source gives them in different places.

Key:
human OCT2 [1] = biological target: T1, human OCT2 (Homo sapiens, UniProt O15244); test: Transport of TEA and MPP in CHO cells that stably expressed human OCT2; type: cell-based; conditions: for true Kt for OCT2-mediated transport (suggested): authors' estimate in the discussion; for Ktapp of uptake: 30 sec uptakes
T1 sequence (O15244 1-555): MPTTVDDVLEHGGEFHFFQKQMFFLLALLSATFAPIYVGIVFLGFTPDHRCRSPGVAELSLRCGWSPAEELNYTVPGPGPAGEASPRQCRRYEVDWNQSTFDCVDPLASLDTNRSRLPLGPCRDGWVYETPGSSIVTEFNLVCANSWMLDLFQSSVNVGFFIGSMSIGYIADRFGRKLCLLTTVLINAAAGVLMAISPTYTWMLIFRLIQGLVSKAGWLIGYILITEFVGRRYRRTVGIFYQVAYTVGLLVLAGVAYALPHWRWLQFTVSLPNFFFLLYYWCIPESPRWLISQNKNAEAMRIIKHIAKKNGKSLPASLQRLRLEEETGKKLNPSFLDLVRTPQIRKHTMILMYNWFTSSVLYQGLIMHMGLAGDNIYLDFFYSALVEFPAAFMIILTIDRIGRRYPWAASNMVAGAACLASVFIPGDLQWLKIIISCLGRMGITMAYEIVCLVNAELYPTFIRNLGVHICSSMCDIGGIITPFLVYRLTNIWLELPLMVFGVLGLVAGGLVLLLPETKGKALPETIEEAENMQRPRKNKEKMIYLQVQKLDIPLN

human OCT2 [2] = biological target: T1, human OCT2; test: Literature kinetic parameters for OCT2-mediated transport, cells; type: cell-based; conditions: median of the values in Table I
human OCT2 [3] = biological target: T1, human OCT2; conditions: ref Morales & Wright, unpublished; cited from earlier work
[4] = OCT2 knockdown cells (shRNA #6), paired studies, three (TEA) or four (MPP)
[5] = control (fully expressing) cells, paired studies, three (TEA) or four (MPP)
[6] = control (unshaken), 96 well plate, n=3
[7] = shaken (reciprocal, 13 Hz), 96 well plate, n=3

C[n+]1ccc(-c2ccccc2)cc1 [MPP, 1-Methyl-4-phenylpyridinium]
increase of 30 sec uptake by shaking (human OCT2 [1]; 24 well plate, flat-bed orbital shaker 300 rpm (5 Hz), [3H] substrate, P < 0.05): 50%
Jmax (human OCT2 [1]; [4]): 6.1 ± 1.2 pmol cm^−2 min^−1
apparent Kt (human OCT2 [1]; [4]): 3.8 ± 0.5 µM
Ktapp (human OCT2 [1]; OCT2 knockdown cells, six paired experiments (n = 6)): 3.3 ± 0.9 µM
Jmax (human OCT2 [1]; Table I, present study): 35 pmol cm^−2 min^−1
Ktapp (human OCT2 [1]; Table I, present study): 9 µM
true Kt for OCT2-mediated transport (suggested) (human OCT2 [1]): 1 to 2 µM
Winne ‘bias’ (human OCT2 [1]; calculated from present study Jmax and a 1500 µm UWL): 7 µM
maximum transport rates, fold lower than in parental OCT2-expressing cells (human OCT2 [1]; cells with reduced OCT2 expression (RNAi)): 11 fold
Jmax (human OCT2 [1]; [5]): 64.7 ± 16.6 pmol cm^−2 min^−1
apparent Kt (human OCT2 [1]; [5]): 16.6 ± 4.0 µM
Ktapp of uptake (human OCT2 [1]; [6]): 6.5 ± 0.4 µM
Jmax (human OCT2 [1]; [6]): 35.4 ± 1.4 pmol cm^−2 min^−1
estimated true Kt (human OCT2 [1]; intercept of the Jmax vs Ktapp relationship (linear regression)): 1.8 ± 1.6 µM
reduction in the 15 sec uptake in OCT2 knockdown cells (human OCT2 [1]; knockdown (shRNA #6) vs control cells, […] [14C]TEA plus 1.0 nM [3H]MPP): 55%
reduction of Jmax in OCT2 knockdown cells (human OCT2 [1]; knockdown vs control cells): 90%
Ktapp of uptake (human OCT2 [1]; [7]): 4.5 ± 0.5 µM
Jmax (human OCT2 [1]; [7]): 37.4 ± 2.5 pmol cm^−2 min^−1

CN(C)C(=N)N=C(N)N [Metformin]
true Kt for OCT2-mediated transport (suggested) (human OCT2 [1]): ~ 1000 µM
median Jmax (human OCT2 [2]): ~ 350 pmol cm^−2 min^−1
Jmax (human OCT2 [3]): 265 pmol cm^−2 min^−1
Ktapp (human OCT2 [3]): 378 µM
